Measured values as given in ChEMBL document CHEMBL5210307, “Affinity Biochemical Literature for EUbOPEN Chemogenomics Library wave 3” (2023).

Assays:
[1] = biological target: Ephrin type-B receptor 4 (Homo sapiens, UniProt P54760); test: Affinity Biochemical interaction (Microscale thermophoresis (MST) assay) EUB0000143b EPHB4; set-up: mode of action Inhibitor, recommended concentration 100 nM
[2] = biological target: Transient receptor potential cation channel subfamily A member 1 (Homo sapiens, UniProt O75762); test: Affinity Biochemical interaction (FLIPR-based Ca2+ assay (activated by 30 µM AITC)) EUB0000308b TRPA1; set-up: mode of action Antagonist, recommended concentration 1 uM
[3] = biological target: Histone acetyltransferase p300 (Homo sapiens, UniProt Q09472)
[4] = biological target: Methionine aminopeptidase 2 (Homo sapiens, UniProt P50579); test: Affinity Biochemical interaction (Biochemical activity assay (addition of Mn)) EUB0000303b METAP2; set-up: mode of action Inhibitor, recommended concentration 1 uM
[5] = biological target: Tyrosine-protein kinase Mer (Homo sapiens, UniProt Q12866)
[6] = biological target: Oxidized purine nucleoside triphosphate hydrolase (Homo sapiens, UniProt P36639); test: Affinity Biochemical interaction (PPiLight Biochemical Assay (full-length human NUDT1)) EUB0000587a NUDT1
[7] = biological target: BMP-2-inducible protein kinase (Homo sapiens, UniProt Q9NSY1); test: Affinity Biochemical interaction (Competition binding assay) EUB0000166b BMP2K; set-up: mode of action Negative control for SGC-AAK1-1, recommended concentration 1 uM
[8] = biological target: AP2-associated protein kinase 1 (Homo sapiens, UniProt Q2M2I8); test: Affinity Biochemical interaction (Competition binding assay) EUB0000166b AAK1; set-up: mode of action Negative control for SGC-AAK1-1, recommended concentration 1 uM
[9] = biological target: Discoidin domain-containing receptor 2 (Homo sapiens, UniProt Q16832); test: Affinity Biochemical interaction (Radiometric assay (10 µM ATP, Reaction Biology)) EUB0000156b DDR2; set-up: mode of action Negative control for DDR-TRK-1 (D2202-1), recommended concentration 1 uM
[10] = biological target: NT-3 growth factor receptor (Homo sapiens, UniProt Q16288); test: Affinity Biochemical interaction (Radiometric assay (10 µM ATP, Reaction Biology)) EUB0000156b NTRK3; set-up: mode of action Negative control for DDR-TRK-1 (D2202-1), recommended concentration 1 uM
[11] = biological target: Epithelial discoidin domain-containing receptor 1 (Homo sapiens, UniProt Q08345); test: Affinity Biochemical interaction (Radiometric assay (10 µM ATP, Reaction Biology)) EUB0000156b DDR1; set-up: mode of action Negative control for DDR-TRK-1 (D2202-1), recommended concentration 1 uM
[12] = biological target: High affinity nerve growth factor receptor (Homo sapiens, UniProt P04629); test: Affinity Biochemical interaction (Radiometric assay (10 µM ATP, Reaction Biology)) EUB0000156b NTRK1; set-up: mode of action Negative control for DDR-TRK-1 (D2202-1), recommended concentration 1 uM
[13] = biological target: Histone acetyltransferase KAT2B (Homo sapiens, UniProt Q92831); test: Affinity Biochemical interaction (BROMOscan assay (DiscoverX)) EUB0000218c KAT2B; set-up: mode of action Inhibitor, recommended concentration 1 uM
[14] = biological target: Dual specificity protein kinase CLK2 (Homo sapiens, UniProt P49760); test: Affinity Biochemical interaction (NanoBRET assay (in HEK293T cells)) EUB0000009b CLK2; format: cell-based; set-up: mode of action Negative control for MU1210, recommended concentration 1 uM
[15] = biological target: Dual specificity protein kinase CLK4 (Homo sapiens, UniProt Q9HAZ1); test: Affinity Biochemical interaction (NanoBRET assay (in HEK293T cells)) EUB0000009b CLK4; format: cell-based; set-up: mode of action Negative control for MU1210, recommended concentration 1 uM
[16] = biological target: Dual specificity protein kinase CLK1 (Homo sapiens, UniProt P49759); test: Affinity Biochemical interaction (NanoBRET assay (in HEK293T cells)) EUB0000009b CLK1; format: cell-based; set-up: mode of action Negative control for MU1210, recommended concentration 1 uM
[17] = Affinity Biochemical interaction (FLIPR assay) EUB0000337aCl P2RY14
[18] = biological target: T1, Protein AF-9 (Homo sapiens, UniProt P42568)
T1 sequence (P42568 whole entry): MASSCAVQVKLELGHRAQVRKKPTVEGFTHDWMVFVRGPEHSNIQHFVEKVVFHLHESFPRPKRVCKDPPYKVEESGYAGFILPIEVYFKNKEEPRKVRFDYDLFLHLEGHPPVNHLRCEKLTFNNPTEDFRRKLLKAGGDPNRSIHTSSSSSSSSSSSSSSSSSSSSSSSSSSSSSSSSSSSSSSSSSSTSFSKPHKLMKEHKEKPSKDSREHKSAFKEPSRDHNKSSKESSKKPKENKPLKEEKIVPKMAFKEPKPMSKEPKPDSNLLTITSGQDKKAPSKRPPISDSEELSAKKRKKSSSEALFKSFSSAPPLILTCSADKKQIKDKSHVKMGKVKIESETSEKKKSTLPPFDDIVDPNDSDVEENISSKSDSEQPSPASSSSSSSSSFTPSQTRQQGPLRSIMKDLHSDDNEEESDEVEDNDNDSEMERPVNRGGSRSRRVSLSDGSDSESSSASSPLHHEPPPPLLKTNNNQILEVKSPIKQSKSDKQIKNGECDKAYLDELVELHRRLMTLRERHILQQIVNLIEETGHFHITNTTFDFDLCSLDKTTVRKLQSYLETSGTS

[19] = biological target: Alpha-1D adrenergic receptor (Homo sapiens, UniProt P25100); test: Affinity Biochemical interaction (Binding assay) EUB0000300bCl ADRA1D; set-up: mode of action Antagonist, recommended concentration 1 uM
[20] = biological target: RAC-alpha serine/threonine-protein kinase (Homo sapiens, UniProt P31749); test: Affinity Biochemical interaction (HTFR assay) EUB0000721a AKT1
[21] = biological target: Nucleosome-remodeling factor subunit BPTF (Homo sapiens, UniProt Q12830); test: Affinity Biochemical interaction (BioLayer Interferometry assay (BLI)) EUB0000254b BPTF; set-up: mode of action Negative control for NVS-BPTF-1, recommended concentration 1 uM
[22] = biological target: Peripheral plasma membrane protein CASK (Homo sapiens, UniProt O14936); test: Affinity Biochemical interaction (Isothermal titration calorimetry (ITC)) EUB0000723a CASK; set-up: mode of action Inhibitor, recommended concentration 1 uM
[23] = biological target: T1, Protein AF-9; test: Affinity Biochemical interaction (HTRF-based inhibition assay) EUB0000732a MLLT3; set-up: mode of action Negative control for PFI-6, recommended concentration 1 uM
[24] = biological target: Protein ENL (Homo sapiens, UniProt Q03111); test: Affinity Biochemical interaction (HTRF-based inhibition assay) EUB0000732a MLLT1; set-up: mode of action Negative control for PFI-6, recommended concentration 1 uM

Chain of Epithelial discoidin domain-containing receptor 1 (Q08345 whole entry, the tested form may be a part): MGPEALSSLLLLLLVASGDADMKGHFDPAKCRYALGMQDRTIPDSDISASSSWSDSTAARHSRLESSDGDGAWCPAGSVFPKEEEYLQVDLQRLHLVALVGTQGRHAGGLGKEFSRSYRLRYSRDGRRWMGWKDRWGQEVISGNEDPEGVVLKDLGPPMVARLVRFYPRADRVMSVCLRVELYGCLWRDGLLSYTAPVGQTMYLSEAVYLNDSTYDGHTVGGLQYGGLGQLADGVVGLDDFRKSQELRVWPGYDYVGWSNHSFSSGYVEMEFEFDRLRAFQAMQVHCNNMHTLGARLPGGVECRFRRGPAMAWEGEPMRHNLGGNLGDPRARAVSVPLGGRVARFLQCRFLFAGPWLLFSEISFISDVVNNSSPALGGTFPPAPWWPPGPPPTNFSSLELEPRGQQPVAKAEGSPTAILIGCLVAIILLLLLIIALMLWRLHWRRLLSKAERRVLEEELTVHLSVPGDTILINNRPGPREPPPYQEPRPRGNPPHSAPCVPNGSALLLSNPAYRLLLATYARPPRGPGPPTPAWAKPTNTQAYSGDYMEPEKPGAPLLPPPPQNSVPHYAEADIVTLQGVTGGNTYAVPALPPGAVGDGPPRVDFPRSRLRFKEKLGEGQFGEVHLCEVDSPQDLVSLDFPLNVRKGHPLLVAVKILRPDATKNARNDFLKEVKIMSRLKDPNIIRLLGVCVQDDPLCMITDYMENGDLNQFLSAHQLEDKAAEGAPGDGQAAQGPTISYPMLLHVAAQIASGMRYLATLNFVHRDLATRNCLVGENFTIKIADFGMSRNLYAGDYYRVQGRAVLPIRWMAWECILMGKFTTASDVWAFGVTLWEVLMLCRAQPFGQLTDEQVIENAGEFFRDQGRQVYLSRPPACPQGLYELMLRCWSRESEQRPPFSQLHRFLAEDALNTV
Chain of Dual specificity protein kinase CLK2 (P49760 whole entry): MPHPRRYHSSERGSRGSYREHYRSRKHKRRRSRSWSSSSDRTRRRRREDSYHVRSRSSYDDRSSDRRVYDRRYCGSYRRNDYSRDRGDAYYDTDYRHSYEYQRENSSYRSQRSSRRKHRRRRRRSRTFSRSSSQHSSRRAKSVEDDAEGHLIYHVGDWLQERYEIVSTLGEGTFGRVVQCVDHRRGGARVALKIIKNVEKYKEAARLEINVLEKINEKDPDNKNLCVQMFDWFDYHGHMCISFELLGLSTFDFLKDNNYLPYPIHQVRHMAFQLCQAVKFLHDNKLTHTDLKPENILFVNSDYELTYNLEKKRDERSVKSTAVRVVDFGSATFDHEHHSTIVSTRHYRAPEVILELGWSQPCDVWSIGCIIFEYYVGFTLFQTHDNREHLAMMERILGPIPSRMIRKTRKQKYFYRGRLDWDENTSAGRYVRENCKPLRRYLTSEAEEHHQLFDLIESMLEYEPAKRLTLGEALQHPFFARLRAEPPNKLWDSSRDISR
Chain of AP2-associated protein kinase 1 (Q2M2I8 whole entry, the tested form may be a part): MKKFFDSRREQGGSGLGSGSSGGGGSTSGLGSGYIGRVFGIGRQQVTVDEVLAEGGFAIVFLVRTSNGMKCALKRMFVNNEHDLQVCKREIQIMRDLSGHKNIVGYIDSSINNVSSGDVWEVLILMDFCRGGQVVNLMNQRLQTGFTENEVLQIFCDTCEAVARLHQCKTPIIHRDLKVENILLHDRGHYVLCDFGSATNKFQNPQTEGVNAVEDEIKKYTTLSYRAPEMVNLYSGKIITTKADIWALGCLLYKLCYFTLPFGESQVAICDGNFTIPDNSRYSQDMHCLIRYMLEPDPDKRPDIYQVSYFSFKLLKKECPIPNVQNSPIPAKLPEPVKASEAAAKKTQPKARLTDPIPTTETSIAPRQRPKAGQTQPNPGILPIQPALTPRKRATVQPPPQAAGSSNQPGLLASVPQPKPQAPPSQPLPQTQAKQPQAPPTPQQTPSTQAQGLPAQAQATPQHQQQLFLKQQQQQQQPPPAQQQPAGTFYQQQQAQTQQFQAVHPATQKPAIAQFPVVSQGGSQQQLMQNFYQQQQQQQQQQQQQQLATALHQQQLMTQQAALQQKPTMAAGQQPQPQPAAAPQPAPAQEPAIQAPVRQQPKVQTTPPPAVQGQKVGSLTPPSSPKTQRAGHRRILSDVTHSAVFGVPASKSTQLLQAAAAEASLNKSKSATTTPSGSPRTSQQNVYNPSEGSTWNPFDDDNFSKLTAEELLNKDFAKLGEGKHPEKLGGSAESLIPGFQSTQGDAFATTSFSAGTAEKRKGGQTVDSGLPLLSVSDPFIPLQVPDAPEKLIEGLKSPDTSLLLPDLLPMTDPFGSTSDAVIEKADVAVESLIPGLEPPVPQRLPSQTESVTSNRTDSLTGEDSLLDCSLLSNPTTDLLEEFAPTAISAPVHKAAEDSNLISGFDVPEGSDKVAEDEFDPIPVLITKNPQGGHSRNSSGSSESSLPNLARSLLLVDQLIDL
Chain of Peripheral plasma membrane protein CASK (O14936 whole entry): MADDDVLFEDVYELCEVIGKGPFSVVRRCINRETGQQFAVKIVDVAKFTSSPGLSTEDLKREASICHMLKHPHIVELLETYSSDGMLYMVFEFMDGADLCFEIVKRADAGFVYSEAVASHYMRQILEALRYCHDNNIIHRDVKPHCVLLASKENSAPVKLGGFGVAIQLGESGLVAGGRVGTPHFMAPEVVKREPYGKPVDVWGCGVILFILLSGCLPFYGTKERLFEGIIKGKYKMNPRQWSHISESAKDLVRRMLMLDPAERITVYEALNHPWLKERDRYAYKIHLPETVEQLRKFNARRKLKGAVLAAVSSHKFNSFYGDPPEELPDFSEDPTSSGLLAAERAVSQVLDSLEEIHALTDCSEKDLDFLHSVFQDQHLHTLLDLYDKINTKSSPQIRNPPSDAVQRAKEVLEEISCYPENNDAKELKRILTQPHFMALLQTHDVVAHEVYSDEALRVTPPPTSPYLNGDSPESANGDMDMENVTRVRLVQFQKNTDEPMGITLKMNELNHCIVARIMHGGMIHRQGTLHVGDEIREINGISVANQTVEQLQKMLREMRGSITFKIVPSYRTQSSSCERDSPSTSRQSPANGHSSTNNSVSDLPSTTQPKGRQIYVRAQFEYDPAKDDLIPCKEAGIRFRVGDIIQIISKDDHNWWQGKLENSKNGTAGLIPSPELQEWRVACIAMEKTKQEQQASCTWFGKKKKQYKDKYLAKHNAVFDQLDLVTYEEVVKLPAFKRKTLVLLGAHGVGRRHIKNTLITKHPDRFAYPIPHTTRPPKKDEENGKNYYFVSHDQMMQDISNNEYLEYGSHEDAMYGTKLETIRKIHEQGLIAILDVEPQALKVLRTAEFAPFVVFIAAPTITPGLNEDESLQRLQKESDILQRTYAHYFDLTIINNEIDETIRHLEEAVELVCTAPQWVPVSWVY
Chain of Dual specificity protein kinase CLK1 (P49759 whole entry): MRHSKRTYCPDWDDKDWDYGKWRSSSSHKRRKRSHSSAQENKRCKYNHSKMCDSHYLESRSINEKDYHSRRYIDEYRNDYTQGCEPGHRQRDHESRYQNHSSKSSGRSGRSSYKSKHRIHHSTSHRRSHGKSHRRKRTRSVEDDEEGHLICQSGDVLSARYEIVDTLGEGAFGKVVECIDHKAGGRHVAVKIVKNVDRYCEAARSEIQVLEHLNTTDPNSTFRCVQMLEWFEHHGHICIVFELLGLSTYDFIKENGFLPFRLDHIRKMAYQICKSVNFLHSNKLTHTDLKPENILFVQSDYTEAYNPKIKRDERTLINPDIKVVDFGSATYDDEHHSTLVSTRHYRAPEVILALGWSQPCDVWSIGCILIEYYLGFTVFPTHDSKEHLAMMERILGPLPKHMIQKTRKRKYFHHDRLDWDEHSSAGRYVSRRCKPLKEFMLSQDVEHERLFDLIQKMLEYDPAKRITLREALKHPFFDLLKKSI
Chain of NT-3 growth factor receptor (Q16288 whole entry, the tested form may be a part): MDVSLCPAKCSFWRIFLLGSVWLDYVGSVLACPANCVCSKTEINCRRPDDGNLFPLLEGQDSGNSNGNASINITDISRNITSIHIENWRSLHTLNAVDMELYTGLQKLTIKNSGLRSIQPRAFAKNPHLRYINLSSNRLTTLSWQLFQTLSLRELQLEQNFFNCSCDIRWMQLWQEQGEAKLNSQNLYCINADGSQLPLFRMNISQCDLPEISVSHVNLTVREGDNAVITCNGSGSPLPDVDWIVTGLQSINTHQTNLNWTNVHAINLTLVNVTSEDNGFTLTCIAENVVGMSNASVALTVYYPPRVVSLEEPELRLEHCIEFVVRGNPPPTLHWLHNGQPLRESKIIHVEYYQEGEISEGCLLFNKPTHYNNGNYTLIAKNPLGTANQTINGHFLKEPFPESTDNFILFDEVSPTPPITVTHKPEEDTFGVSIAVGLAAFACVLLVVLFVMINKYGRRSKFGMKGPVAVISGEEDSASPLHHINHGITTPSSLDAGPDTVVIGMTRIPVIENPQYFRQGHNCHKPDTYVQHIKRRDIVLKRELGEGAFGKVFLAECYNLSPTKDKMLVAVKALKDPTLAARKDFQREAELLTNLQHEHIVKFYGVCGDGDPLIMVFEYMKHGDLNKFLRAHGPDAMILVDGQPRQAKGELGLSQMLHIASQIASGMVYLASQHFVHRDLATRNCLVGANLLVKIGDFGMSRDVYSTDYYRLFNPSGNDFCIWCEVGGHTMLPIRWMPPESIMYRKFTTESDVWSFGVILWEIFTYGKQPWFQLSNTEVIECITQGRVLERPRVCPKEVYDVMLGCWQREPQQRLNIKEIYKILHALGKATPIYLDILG

Cc1ccc(C(=O)Nc2cccc(C(F)(F)F)c2)cc1Nc1nc(-c2cccnc2)nc2c1cnn2C
IC50 [1]: 6 nM

Clc1cccc(-c2nnnn2Cc2cccnc2)c1Cl
IC50 [2]: 67 nM

CCC(=O)N1CCOc2c(cc(-c3ccc(OC)c(OC)c3)cc2OC[C@H]2CCCN(C)C2)C1
Kd [3]: 625 nM

Cc1nc(N2CC[C@H](O)C2)ncc1-c1cc(C(F)(F)F)cc2[nH]ncc12
IC50 [4]: 7 nM

CCOc1cn(-c2ccc(F)cc2C)nc1C(=O)Nc1ccc(Oc2ccnc3cc(OC)c(OC)cc23)c(F)c1
IC50 [5]: 5 nM

CCNC(=O)c1cc2c(N3CCOC[C@@H]3C)ccnc2n1C
IC50 [6]: > 20000 nM

CC(C)C(=O)Nc1n[nH]c2cc(-c3cccc(NS(=O)(=O)C4CC4)c3)ccc12
Kd [7]: > 10000 nM
Kd [8]: 8800 nM

CN1CCN(Cc2cc(NC(=O)c3ccc4c(c3)CN(c3ccccc3)CC4)cc(C(F)(F)F)c2)CC1
IC50 [9]: > 10000 nM
IC50 [10]: 8100 nM
IC50 [11]: 1730 nM
IC50 [12]: 6250 nM

Cc1nnc2c3ccccc3c(N[C@@H](C)[C@H](c3ccccc3)N(C)C)nn12
IC50 [13]: 48 nM

Cn1cc(-c2ccc3occ(-c4ccccc4-c4ccccc4)c3n2)cn1
Ki [14]: > 10000 nM
Ki [15]: > 10000 nM
Ki [16]: > 10000 nM

Cc1c(C(=O)O)cc(-c2ccc(C3CCNCC3)cc2)c2ccc(-c3ccc(C(F)(F)F)cc3)cc12
IC50 [17]: 4380 nM

CN(C)C(=O)c1ccc(-c2cc(C(=O)N[C@@H]3CCc4ccccc43)no2)cc1O
IC50 [18]: 160 nM

C[C@@H](c1cccc(CN)c1)n1cc(Cl)cc(C(N)=O)c1=N
Ki [19]: 1.6 nM

C=CC(=O)Nc1ccc2[nH]c(=O)n(C3CCN(C(=O)c4ccc(-c5nc6cc[nH]c(=O)c6cc5-c5ccccc5)cc4)CC3)c2c1
IC50 [20]: 9200 nM

Cc1c(Nc2ccc(S(=O)(=O)N3CCN(C)CC3)cc2F)nc2ccc(Nc3cnn(C4CC4)c3)cn2c1=O
Kd [21]: 1670 nM

O=C(NCCCN1CCOC1=O)c1cnc(NCc2cc(Br)ccc2Br)nc1NC1CCCC1
Kd [22]: 22 nM

CN(C)C(=O)c1ccc(-c2cc(C(=O)N(C)C3CCCC3)no2)cc1O
IC50 [23]: > 30000 nM
IC50 [24]: > 30000 nM
